Patent US11077039B2, “Topical skin lightening additive and composition with amino acids and nicotinamide compounds” (Conopco, Inc., priority 2016, dated 2021)
Read-outs that look alike come from different tables or passages of the source. Blank lines part the entries; values can stand above or below the molecule they belong to.

Assays:
[1] = target: T1, tyrosinase (Homo sapiens, UniProt P14679); assay: Tyrosinase activity assay (in situ, melanocyte lysate); type: cell-based; details: Table 1B, 72 h
T1 construct: host or cells: human primary melanocytes
T1 sequence (P14679 19-529): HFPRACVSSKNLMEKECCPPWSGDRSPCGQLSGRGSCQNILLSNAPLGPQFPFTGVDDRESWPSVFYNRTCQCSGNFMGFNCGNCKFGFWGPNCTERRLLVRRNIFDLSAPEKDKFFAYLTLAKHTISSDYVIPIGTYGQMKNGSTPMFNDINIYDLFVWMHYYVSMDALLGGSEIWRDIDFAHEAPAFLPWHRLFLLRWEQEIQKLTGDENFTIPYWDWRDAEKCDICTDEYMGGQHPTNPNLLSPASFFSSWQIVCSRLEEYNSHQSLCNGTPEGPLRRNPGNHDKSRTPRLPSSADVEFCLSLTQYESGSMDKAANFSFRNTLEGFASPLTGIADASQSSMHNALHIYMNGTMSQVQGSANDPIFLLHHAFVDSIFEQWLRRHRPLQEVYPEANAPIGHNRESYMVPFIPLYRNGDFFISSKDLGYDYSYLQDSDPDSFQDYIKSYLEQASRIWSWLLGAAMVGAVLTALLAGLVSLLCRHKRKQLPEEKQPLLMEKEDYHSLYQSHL
Method: Human primary melanocytes (Cascade Biologics, now ThermoFisher Scientific) were grown in melanocytes growth medium (MGM) with human melanocyte growth supplement (both media components from ThermoFisher Scientific). Melanocytes were seeded at 1×10^4 cells/well in a 96 wells plate and cultures left undisturbed for 24 hours in a 5% CO2 humidifed incubator at 37° C. At 24 hrs post-seeding, cells were treated with GAP amino acids or additional test reagents above-described, alone or in combination, as described in examples below and left undisturbed for another 72 hours. Subsequently, cell viability was assessed and the cells were then lysed and progressed for determination of in situ tyrosinase activity. Cultures were rinsed twice with 1× phosphate-buffered saline and lysed with 40 uL of 0.5% TritonX 100 for 1 hr on an ice bed. In situ tyrosinase activity was visualized by addition of 60 μl of 50 mM potassium phosphate buffer (pH 6.8) containing 2 mM DOPA (3,4 dihydroxy phenylalanine) and 4 mM MBTH reagent (3-Methyl-2-Benzothiazolinone hydrazone hydrochloride) for 1 hour at 37° C. The reaction was stopped by the addition of 100 uL of ice-cold 10% tricholoracetic acid and then centrifuged at approximately 300 g for 10 minutes at 4° C. The soluble supernatant was separated from the pellet and the optical density read in a TECAN plate-reader (540 nm filter). The spectrophotometric optical density at 540 nm for untreated cells (media/vehicle) is considered as 100% tyrosinase activity. Tyrosinase activity is expressed after correction for cell numbers (activity/viability) and represented as % control.

[2] = test system: Human primary melanocytes; assay: Melanin content assay; type: cell-based; details: Melanocyte, 72 h
Method: Human primary melanocytes (Cascade Biologics, now ThermoFisher Scientific) were grown in melanocytes growth medium (MGM) with human melanocyte growth supplement (both media components from ThermoFisher Scientific). Melanocytes were seeded at 5×10^4 cells/well in 24 well-plates and incubated in a humidified incubator at 37° C. with 5% CO2 atmosphere. After 24 hours of incubation, cell cultures were treated with the GAP amino acids or additional test reagents above-described, alone or in combination, as described in examples below. The vehicle control consisted of cells treated with the vehicle (0.002 mM NaOH) alone. After treatment, cells were again incubated for 72 hours in a humidified incubator at 37° C. with 5% CO2 atmosphere. At the end of the 72 hour incubation, the culture medium was replaced with 120 uL/well of melanin content assay reagent (10% DMSO in 1M sodium hydroxide) and incubated for 1 hour at 60° C. in a shaker incubator. The supernatant was then transferred to a 384 well plate. The absorbance was measured by spectrophotometric analysis at 405 nm with a micro plate reader (GEnios Pro, Tecan).
The spectrophotometric optical density at 405 nm for untreated cells (no active) was considered as 100% melanin content. Relative melanin content for treated samples was calculated with normalization based on the untreated (media/vehide) control.

inhibition at 5000 µM ([1]; Nicotinamide 5 mM, alone or with GAP): 16%
inhibition at 10000 µM ([1]; Nicotinamide 10 mM, alone or with GAP): 24%
Compound: NC(=O)c1cccnc1 [Nicotinamide, nicotinamide]
inhibition at 5000 µM ([2]; Table 1A, Nicotinamide 5 mM, alone or with GAP, read-out: Melanin synthesis inhibition, Mean of % Inhibition): 9%
inhibition at 10000 µM ([2]; Table 1A, Nicotinamide 10 mM, alone or with GAP, read-out: Melanin synthesis inhibition, Mean of % Inhibition): 10%

Compound: CNC(=O)c1cccnc1 [N-methyl Nicotinamide, n-methyl-nicotinamide]
inhibition at 5000 µM ([2]; Table 1C, N-methyl Nicotinamide 5 mM, alone or with GAP, read-out: Melanin synthesis inhibition, Mean of % Inhibition): 0%
inhibition at 10000 µM ([2]; Table 1C, N-methyl Nicotinamide 10 mM, alone or with GAP, read-out: Melanin synthesis inhibition, Mean of % Inhibition): 7%

Compound: NC(=O)c1ccc[n+]([C@@H]2O[C@H](CO)[C@@H](O)[C@H]2O)c1 [Nicotinamide Riboside, nicotinamide riboside]
inhibition at 1 µM ([2]; Table 1E, Nicotinamide Riboside 1 uM, alone or with GAP, read-out: Melanin synthesis inhibition, Mean of % Inhibition): 4%
inhibition at 2.5 µM ([2]; Table 1E, Nicotinamide Riboside 2.5 uM, alone or with GAP, read-out: Melanin synthesis inhibition, Mean of % Inhibition): 9%

Compound: NC(=O)c1ccncc1 [Isonicotinamide, isonicotinamide]
inhibition at 5000 µM ([2]; Table 1D, Isonicotinamide 5 mM, alone or with GAP, read-out: Melanin synthesis inhibition, Mean of % Inhibition): 4%
inhibition at 10000 µM ([2]; Table 1D, Isonicotinamide 10 mM, alone or with GAP, read-out: Melanin synthesis inhibition, Mean of % Inhibition): 20%

inhibition at 10 µM ([1]; HR 10 uM): 67%
Compound: CCCCCCc1ccc(O)cc1O [HR, 4-hexylresorcinol]
inhibition at 10 µM ([2]; Table 1A, HR 10 uM, read-out: Melanin synthesis inhibition, Mean of % Inhibition): 35%
inhibition at 10 µM ([2]; Table 1C, HR 10 μM, read-out: Melanin synthesis inhibition, Mean of % Inhibition): 26%
inhibition at 10 µM ([2]; Table 1D, HR 10 uM, read-out: Melanin synthesis inhibition, Mean of % Inhibition): 32%
inhibition at 10 µM ([2]; Table 1E, HR 10 uM, read-out: Melanin synthesis inhibition, Mean of % Inhibition): 28%
inhibition at 10 µM ([2]; Table 2, HR 10 uM, read-out: Melanin synthesis inhibition, Mean of % Inhibition): 36%
inhibition at 10 µM ([2]; Table 2B, HR 10 uM, read-out: Melanin Synthesis inhibition, Mean of % Inhibition): 32%

Compound: O=C(O)c1cccnc1 [Niacin, niacin]
inhibition at 5000 µM ([2]; Table 2B, Niacin 5 mM, alone or with GAP, read-out: Melanin Synthesis inhibition, Mean of % Inhibition): -7%
inhibition at 10000 µM ([2]; Table 2B, Niacin 10 mM, alone or with GAP, read-out: Melanin Synthesis inhibition, Mean of % Inhibition): 14%

Compound: NC(=O)c1ccccn1 [Picolinamide, picolinamide]
inhibition at 5000 µM ([2]; Table 2, Picolinamide 5 mM, alone or with GAP, read-out: Melanin synthesis inhibition, Mean of % Inhibition): 6%
inhibition at 10000 µM ([2]; Table 2, Picolinamide 10 mM, alone or with GAP, read-out: Melanin synthesis inhibition, Mean of % Inhibition): 32%
